According to patent publication US20260258035A1, “FIVE-MEMBERED AND SIX-MEMBERED NITROGEN-CONTAINING COMPOUND, AND INTERMEDIATE, PREPARATION METHOD AND USE THEREOF” (HANGZHOU SYNRX THERAPEUTICS BIOMEDICAL TECHNOLOGY CO., LTD., priority 2022, published 2026):
Read-outs that look alike come from different tables or passages of the source.

Tests used:
[1] = target: PARG (Homo sapiens, UniProt Q86W56); assay: Biochemical assay (PARG, TFMU-ADPr substrate)
[2] = tested on: Human breast squamous carcinoma cells HCC1806; assay: Cell function assay (In-Cell Western, PAR/pADPr after MMS); type: cell-based
Protocol: 2. Cell Function Assay (In-Cell Western)
• 1) Human breast squamous carcinoma cells HCC1806 (ATCC) were seeded to the 384-well plate (Corning, #3764) at 20,000 cells/well, incubated for 24 h in a CO2 (5%) incubator at 37° C. to allow for complete adherence of the cells; • 2) 120 nL compounds or DMSO were added to the 384-well plate by Echo 550 (LABCYTE, #550) (final concentrations of compounds: 30000 nM, 10000 nM, 3000 nM, 1000 nM, 300 nM, 100 nM, 30 nM, 10 nM, 3 nM, 1 nM, 0 nM), and then the cells were incubated for 1 h in a CO2 (5%) incubator at 37° C.; • 3) 40 nL MMS (methyl mesylate, Sigma, #129925)(final concentration: 0.5 mM) was added to the plate by Echo 550, and the cells were treated for 1 h in a CO2 (5%) incubator at 37° C.

[3] = tested on: HCC1806; assay: Cell viability assay (CellTiter-Glo); type: cell-based, Human; conditions: HCC1806, 7 days, CellTiter-Glo, read-out: IC50 (nM) in cell viability assay
[4] = 4 nM PARG, 66.2 uM TFMU-ADPr, 3 min at room temperature
[5] = HCC1806, In-Cell Western, MMS treatment, read-out: IC50 (nM) in cell function assay
[6] = HCC1806, compound 1 h then 0.5 mM MMS 1 h, PAR/pADPr antibody, In-Cell Western, read-out: IC50 (nM) in cell function assay

PARG, sequence (Q86W56 whole entry): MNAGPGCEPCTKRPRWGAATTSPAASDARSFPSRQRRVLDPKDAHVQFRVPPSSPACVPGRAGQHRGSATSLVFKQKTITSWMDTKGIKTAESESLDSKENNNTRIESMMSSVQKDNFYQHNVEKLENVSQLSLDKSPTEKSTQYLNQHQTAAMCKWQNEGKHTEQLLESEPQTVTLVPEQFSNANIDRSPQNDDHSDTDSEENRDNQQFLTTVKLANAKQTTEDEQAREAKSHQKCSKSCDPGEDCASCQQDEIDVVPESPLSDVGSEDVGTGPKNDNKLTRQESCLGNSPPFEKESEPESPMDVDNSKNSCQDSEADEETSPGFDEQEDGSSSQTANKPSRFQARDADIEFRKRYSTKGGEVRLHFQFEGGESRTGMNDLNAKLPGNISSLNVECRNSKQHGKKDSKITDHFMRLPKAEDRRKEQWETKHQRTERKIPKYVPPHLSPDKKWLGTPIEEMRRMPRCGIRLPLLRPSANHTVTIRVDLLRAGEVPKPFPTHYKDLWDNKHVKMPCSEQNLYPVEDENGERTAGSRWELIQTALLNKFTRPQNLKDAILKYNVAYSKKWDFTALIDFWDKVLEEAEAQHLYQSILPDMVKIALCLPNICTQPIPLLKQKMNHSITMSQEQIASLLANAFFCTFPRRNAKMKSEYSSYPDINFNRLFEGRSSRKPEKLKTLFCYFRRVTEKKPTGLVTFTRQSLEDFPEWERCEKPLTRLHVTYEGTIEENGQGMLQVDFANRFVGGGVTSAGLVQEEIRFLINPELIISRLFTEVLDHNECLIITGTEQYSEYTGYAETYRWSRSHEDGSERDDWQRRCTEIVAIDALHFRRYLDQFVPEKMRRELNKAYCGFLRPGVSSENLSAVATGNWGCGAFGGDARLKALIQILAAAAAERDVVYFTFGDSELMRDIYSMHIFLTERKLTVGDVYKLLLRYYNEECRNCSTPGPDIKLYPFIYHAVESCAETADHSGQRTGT

IC50 [1, 4] | IC50 ([1]; PARG, TFMU-ADPr substrate) | IC50 [2, 5] | IC50 [3] | IC50 ([3]; Homo sapiens, HCC1806, 168 h) | IC50 [2, 6] | Structure (SMILES) | IC50 ([2]; HCC1806, 1 h, read-out: IC50 (nM) in cell function assay) | IC50 ([2]; HCC1806, read-out: IC50 (nM) in cell function assay)
< 100 nM | 2.4 nM | 9.15 nM | 500 nM | < 500 nM |  | CC(C)C(=O)N1CC=C(c2cc(S(=O)(=O)NC3(C#N)CC3)cn3c(-c4nnc(C(F)F)s4)cnc23)CC1 [Example 12, N-(1-cyanocyclopropyl)-3-(5-(difluoromethyl)-1,3,4-thiadiazol-2-yl)-8-(1-isobutyryl-1,2,3,6-tetrahydropyridin-4-yl)imidazo[1,2-a]pyridine-6-sulfonamide] |  | 
< 100 nM | 2.46 nM | 52.6 nM | 500 nM | < 500 nM | < 100 nM | CC(C)C(=O)N1CC2(CC=C(c3nc(-c4nnc(C(F)F)s4)n4cc(S(=O)(=O)NC5(C#N)CC5)ccc34)C2)C1 [Example 24, N-(1-cyanocyclopropyl)-3-(5-(difluoromethyl)-1,3,4-thiadiazol-2-yl)-1-(2-isobutyryl-2-azaspiro[3.4]oct-6-en-6-yl)imidazo[1,5-a]pyridine-6-sulfonamide] |  | 
< 100 nM | 1.22 nM | 5.77 nM |  | < 500 nM | < 100 nM | CC(C)C(=O)N1CCN(c2cc(S(=O)(=O)NC3(C)CC3)cn3c(-c4nnc(C(F)F)s4)ncc23)CC1 [Example 34, 3-(5-(difluoromethyl)-1,3,4-thiadiazol-2-yl)-8-(4-isobutyrylpiperazin-1-yl)-N-(1-methylcyclopropyl)imidazo[1,5-a]pyridine-6-sulfonamide] |  | 
< 100 nM | 4.7 nM | 166 nM |  | 2670 nM |  | CC(C)C(=O)N1CCN(c2cc(S(=O)(=O)NC3(CO)CC3)cn3c(-c4nnc(C(F)F)s4)ncc23)CC1 [Example 37, 3-(5-(difluoromethyl)-1,3,4-thiadiazol-2-yl)-N-(1-(hydroxymethyl)cyclopropyl)-8-(4-isobutyrylpiperazin-1-yl)imidazo[1,5-a]pyridine-6-sulfonamide] |  | 
< 100 nM | 8.69 nM | 6.77 nM |  |  | < 100 nM | C[C@@H]1CN(c2cc(S(=O)(=O)NC3(C)COC3)cn3c(-c4nnc(C(F)F)s4)ncc23)CCN1C(=O)C1(C)CC1 [Example 88, (R)-3-(5-(difluoromethyl)-1,3,4-thiadiazol-2-yl)-8-(3-methyl-4-(1-methylcyclopropane-1-carbonyl)piperazin-1-yl)-N-(3-methyloxetan-3-yl)imidazo[1,5-a]pyridine-6-sulfonamide] |  | 
< 100 nM | 2.09 nM | 1.68 nM |  |  | < 100 nM | CC(C)[C@@H]1CN(c2cc(S(=O)(=O)NC3(C#N)CC3)cn3c(-c4nnc(C(F)F)s4)ncc23)CCN1C(=O)C1(C)CC1 [Example 96, (R)-N-(1-cyanocyclopropyl)-3-(5-(difluoromethyl)-1,3,4-thiadiazol-2-yl)-8-(3-isopropyl-4-(1-methylcyclopropane-1-carbonyl)piperazin-1-yl)imidazo[1,5-a]pyridine-6-sulfonamide] |  | 
< 100 nM | 5.01 nM | 7.52 nM |  |  | < 100 nM | CC(C)C[C@@H]1CN(c2cc(S(=O)(=O)NC3(C#N)CC3)cn3c(-c4nnc(C(F)F)s4)ncc23)CCN1C(=O)C1(C)CC1 [Example 97, (R)-N-(1-cyanocyclopropyl)-3-(5-(difluoromethyl)-1,3,4-thiadiazol-2-yl)-8-(3-isobutyl-4-(1-methylcyclopropane-1-carbonyl)piperazin-1-yl)imidazo[1,5-a]pyridine-6-sulfonamide] |  | 
< 100 nM | 8.15 nM | 1540 nM |  |  | > 1000 nM | C#CC1(NS(=O)(=O)c2cc(N3CCN(C(=O)C(C)C)CC3)c3nnc(-c4nnc(C(F)F)s4)n3c2)COC1 [Example 101, 3-(5-(difluoromethyl)-1,3,4-thiadiazol-2-yl)-N-(3-ethynyloxetan-3-yl)-8-(4-isobutyrylpiperazin-1-yl)-[1,2,4]triazolo[4,3-a]pyridine-6-sulfonamide] |  | 
< 100 nM | 1.5 nM | 33.6 nM |  |  | < 100 nM | CC(C)C(=O)N1CCN(c2cc(S(=O)(=O)NC3(C)COC3)cn3c(-c4nnc(C(F)F)s4)nnc23)CC1 [Example 103, 3-(5-(difluoromethyl)-1,3,4-thiadiazol-2-yl)-8-(4-isobutyrylpiperazin-1-yl)-N-(3-methyloxetan-3-yl)-[1,2,4]triazolo[4,3-a]pyridine-6-sulfonamide] |  | 
< 100 nM | 0.65 nM | 9.76 nM |  |  | < 100 nM | O=S(=O)(NC1(CF)CC1)c1cc(N2CCC3(CC2)COC3)c2nnc(-c3nnc(C(F)F)s3)n2c1 [Example 104, 3-(5-(difluoromethyl)-1,3,4-thiadiazol-2-yl)-N-(1-(fluoromethyl)cyclopropyl)-8-(2-oxa-7-azaspiro[3.5]nonan-7-yl)-[1,2,4]triazolo[4,3-a]pyridine-6-sulfonamide] |  | 
< 100 nM | 3.67 nM | 36.3 nM |  |  | < 100 nM | CN1CC2(CCN(c3cc(S(=O)(=O)NC4(CF)CC4)cn4c(-c5nnc(C(F)F)s5)nnc34)CC2)CC1=O [Example 112, 3-(5-(difluoromethyl)-1,3,4-thiadiazol-2-yl)-N-(1-(fluoromethyl)cyclopropyl)-8-(2-methyl-3-oxo-2,8-diazaspiro[4.5]decan-8-yl)-[1,2,4]triazolo[4,3-a]pyridine-6-sulfonamide] |  | 
< 100 nM | 5.2 nM | 9 nM |  |  | < 100 nM | O=S(=O)(NC1(CF)CC1)c1cc(N2CC3(COCCO3)C2)c2nnc(-c3nnc(C(F)F)s3)n2c1 [Example 113, 3-(5-(difluoromethyl)-1,3,4-thiadiazol-2-yl)-N-(1-(fluoromethyl)cyclopropyl)-8-(5,8-dioxa-2-azaspiro[3.5]nonan-2-yl)-[1,2,4]triazolo[4,3-a]pyridine-6-sulfonamide] |  | 
< 100 nM | 1.88 nM | 8.51 nM |  |  | < 100 nM | O=S(=O)(NC1(CF)CC1)c1cc(N2CCC(O)(C(F)(F)F)CC2)c2nnc(-c3nnc(C(F)F)s3)n2c1 [Example 115, 3-(5-(difluoromethyl)-1,3,4-thiadiazol-2-yl)-N-(1-(fluoromethyl)cyclopropyl)-8-(4-hydroxy-4-(trifluoromethyl)piperidin-1-yl)-[1,2,4]triazolo[4,3-a]pyridine-6-sulfonamide] |  | 
< 100 nM | 3.16 nM | 4.58 nM |  |  | < 100 nM | CC(C)C(=O)N1CCN(c2cc(S(=O)(=O)NC3(C#N)CC3)cn3c(-c4nnc(C(F)F)s4)nc(Cl)c23)CC1 [Example 122, 1-chloro-N-(1-cyanocyclopropyl)-3-(5-(difluoromethyl)-1,3,4-thiadiazol-2-yl)-8-(4-isobutyrylpiperazin-1-yl)imidazo[1,5-a]pyridine-6-sulfonamide] |  | 
< 100 nM | 6.23 nM | 57.7 nM |  |  | < 100 nM | CC(C)C(=O)N1CCN(c2cc(S(=O)(=O)NC3(C(F)F)COC3)cn3c(-c4nnc(C(F)F)s4)ncc23)CC1 [Example 149, 3-(5-(difluoromethyl)-1,3,4-thiadiazol-2-yl)-N-(3-(difluoromethyl)oxetan-3-yl)-8-(4-isobutyrylpiperazin-1-yl)imidazo[1,5-a]pyridine-6-sulfonamide] |  | 
< 100 nM | 8.22 nM | 9.94 nM |  |  | < 100 nM | [2H]c1nc(-c2nnc(C(F)F)s2)n2cc(S(=O)(=O)NC3(CF)COC3)c(F)c(N3CCN(C(=O)C(C)C)CC3)c12 [Example 154, 3-(5-(difluoromethyl)-1,3,4-thiadiazol-2-yl)-7-fluoro-N-(3-(fluoromethyl)oxetan-3-yl)-8-(4-isobutyrylpiperazin-1-yl)imidazo[1,5-a]pyridine-6-sulfonamide-1-d] |  | 
< 100 nM | 1.58 nM | 5.14 nM |  |  | < 100 nM | CC(C)C(=O)N1CCN(c2cc(S(=O)(=O)NC3(C)CC3)cn3c(-c4nnc(C(F)F)s4)nc(C#N)c23)CC1 [Example 163, 1-cyano-3-(5-(difluoromethyl)-1,3,4-thiadiazol-2-yl)-8-(4-isobutyrylpiperazin-1-yl)-N-(1-methylcyclopropyl)imidazo[1,5-a]pyridine-6-sulfonamide] |  | 

Structure (SMILES) | IC50 [1, 4] | IC50 ([1]; PARG, TFMU-ADPr substrate) | IC50 [2, 5] | IC50 [3] | IC50 ([3]; Homo sapiens, HCC1806, 168 h) | IC50 [2, 6] | IC50 ([2]; HCC1806, 1 h, read-out: IC50 (nM) in cell function assay) | IC50 ([2]; HCC1806, read-out: IC50 (nM) in cell function assay)
[2H]C([2H])([2H])C1(NS(=O)(=O)c2cc(N3CCN(C(=O)C(C)C)CC3)c3cnc(-c4nnc(C(F)F)s4)n3c2)CC1 [Example 161, 3-(5-(difluoromethyl)-1,3,4-thiadiazol-2-yl)-8-(4-isobutyrylpiperazin-1-yl)-N-(1-(methyl-d3)cyclopropyl)imidazo[1,5-a]pyridine-6-sulfonamide] | < 100 nM | 0.88 nM |  |  |  |  | < 100 nM | 1.02 nM
